Among the data in article PMC3627040, “Methadone but not Morphine Inhibits Lubiprostone-Stimulated Cl^− Currents in T84 Intestinal Cells and Recombinant Human ClC-2, but not CFTR Cl^− Currents” (Cell Biochemistry and Biophysics, 2012) are EC50 values, retold here.

In general, EC50 refers to the concentration at which the effect is half-maximal. A high value points to a less potent agent.

The target of this assay is T1, human ClC-2 (hClC-2) Cl^− channel (Homo sapiens, UniProt P51788).
T1 construct: gene CLCN2; recombinant hClC-2 stably expressed in HEK293EBNA cells
T1 sequence (P51788 2-898): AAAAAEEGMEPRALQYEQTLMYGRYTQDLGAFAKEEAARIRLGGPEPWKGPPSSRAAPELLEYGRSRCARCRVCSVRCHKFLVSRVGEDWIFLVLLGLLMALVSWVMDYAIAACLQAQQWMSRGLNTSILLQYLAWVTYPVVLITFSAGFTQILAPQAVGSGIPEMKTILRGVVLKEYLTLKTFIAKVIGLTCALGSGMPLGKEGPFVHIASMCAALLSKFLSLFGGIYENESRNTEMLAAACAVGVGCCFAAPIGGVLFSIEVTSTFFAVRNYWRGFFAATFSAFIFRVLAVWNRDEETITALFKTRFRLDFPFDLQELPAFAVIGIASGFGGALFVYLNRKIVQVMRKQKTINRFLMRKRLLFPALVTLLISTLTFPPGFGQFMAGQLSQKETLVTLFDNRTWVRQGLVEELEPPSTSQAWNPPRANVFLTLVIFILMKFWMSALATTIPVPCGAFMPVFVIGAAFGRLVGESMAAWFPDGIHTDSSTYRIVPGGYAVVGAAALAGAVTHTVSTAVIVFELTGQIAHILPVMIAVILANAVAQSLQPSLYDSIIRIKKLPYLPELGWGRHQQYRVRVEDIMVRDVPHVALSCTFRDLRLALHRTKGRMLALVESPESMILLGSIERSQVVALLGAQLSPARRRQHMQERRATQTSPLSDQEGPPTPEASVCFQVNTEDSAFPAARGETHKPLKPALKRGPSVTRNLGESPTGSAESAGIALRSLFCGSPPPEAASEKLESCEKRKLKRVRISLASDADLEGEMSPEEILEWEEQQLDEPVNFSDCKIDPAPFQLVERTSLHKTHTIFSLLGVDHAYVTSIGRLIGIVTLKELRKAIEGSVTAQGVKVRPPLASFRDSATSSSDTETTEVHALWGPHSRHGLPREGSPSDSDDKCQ
Put plainly: whole cell patch clamp, activation of Cl- currents at -140 mV. It is filed as cell-based. For orientation: In patch-clamp work, channel activity is measured electrically.

Regarding `CCCCC(F)(F)[C@@]1(O)CC[C@H]2[C@@H](CC(=O)[C@@H]2CCCCCCC(=O)O)O1` [Lubiprostone], a half-maximal effect (EC50) was put at 28.2 nM.
